In PubChem BioAssay (NCI):
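48-hour exposure; five concentrations; linearly interpolated endpoints. TGI: concentration producing complete growth inhibition.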

How the values were obtained:
Assay in all cases: NCI anticancer screen, dose series, 48 h
CCRF-CEM leukemia = test system: CCRF-CEM leukemia
EKVX NSCLC = test system: EKVX NSCLC
HCT-15 colon = test system: HCT-15 colon
HL-60(TB) leukemia = test system: HL-60(TB) leukemia
MDA-N = test system: MDA-N
NCI-H522 lung = test system: NCI-H522 lung
NCI/ADR-RES ovarian = test system: NCI/ADR-RES ovarian
OVCAR-4 ovarian = test system: OVCAR-4 ovarian
OVCAR-8 ovarian = test system: OVCAR-8 ovarian
SF-539 CNS = test system: SF-539 CNS

SMILES	TGI (CCRF-CEM leukemia)	TGI (EKVX NSCLC)	TGI (HCT-15 colon)	TGI (HL-60(TB) leukemia)	TGI (MDA-N)	TGI (NCI-H522 lung)	TGI (NCI/ADR-RES ovarian)	TGI (OVCAR-4 ovarian)	TGI (OVCAR-8 ovarian)	TGI (SF-539 CNS)
CC1(C)CC(=O)C2=C(C1)NC(=S)C(C#N)C2c1ccccc1 (stereo not given)	> 100 µM	> 100 µM	> 100 µM	> 100 µM	> 100 µM	> 100 µM	> 100 µM	> 100 µM	> 100 µM	> 100 µM
CC1=NN(c2ccccc2)C(=O)/C1=C\c1c(C)[nH]n(-c2ccccc2)c1=O	> 100 µM	> 100 µM	> 100 µM	> 100 µM	> 100 µM	> 100 µM	> 100 µM	> 100 µM	> 100 µM	> 100 µM
Cc1cccc(NC(=S)Nc2cccc(Cl)c2)n1	> 100 µM	> 100 µM	> 100 µM	> 100 µM	> 100 µM	> 100 µM	> 100 µM	> 100 µM	> 100 µM	> 100 µM
C[C@H](NC(=O)C(C)(Cc1ccc(O)cn1)NC(=O)c1ccccc1)c1ccccc1 (stereo not given in full)	> 100 µM	> 100 µM	> 100 µM	> 100 µM	> 100 µM	> 100 µM	> 100 µM	> 100 µM	> 100 µM	> 100 µM
CCOP(=O)(OCC)C(c1ccccc1)N(C(=O)NC(F)(F)F)c1ccc(C)cc1 (stereo not given)	> 100 µM	> 100 µM	> 100 µM	> 100 µM	> 100 µM	> 100 µM	> 100 µM	> 100 µM	> 100 µM	> 100 µM
C(=Nc1ccc(-c2nc3ccccc3s2)cc1)c1cccs1	3.76 µM	> 100 µM	> 100 µM	0.0298 µM	> 100 µM	> 100 µM	> 100 µM	> 100 µM	> 100 µM	> 100 µM
O=C1CC(c2cccc([N+](=O)[O-])c2)C2(C(=O)NC(=S)NC2=O)C(c2cccc([N+](=O)[O-])c2)C1 (stereo not given)	97.1 µM	74.1 µM	> 100 µM	> 100 µM	> 100 µM	89.6 µM	> 100 µM	> 100 µM	43.6 µM	> 100 µM
O=C(CCC(NC(=O)OCc1ccccc1)C(=O)OCc1ccccc1)Nc1cccc(OCc2ccccc2)c1 (stereo not given)	99.4 µM	> 100 µM	38.8 µM	37.6 µM	> 100 µM	70.1 µM	> 100 µM	> 100 µM	78.6 µM	35 µM
